Drawing on ChEMBL document CHEMBL1142950, “Zooxanthellamide D, a polyhydroxy polyene amide from a marine dinoflagellate, and chemotaxonomic perspective of the Symbiodinium polyols” (J Nat Prod, 2007), this text covers IC50 and Activity for one molecule.

pIC50: −log10 of the molar value. Calls of active or inactive are those of the source. No cut-off for these calls is given here.

By pIC50 is commonly meant the IC50 on a negative log10 scale, so that one unit is a factor of ten. A higher pIC50 goes with a low IC50.

The nature of experiment [1]: Cytotoxicity against human Nakata cells. It counts as cell-based.
In a further experiment the test system is A-431. Nature of the experiment: Cytotoxicity against human A431 cells. It counts as cell-based.
The subject of a further experiment is Phytophthora capsici. Nature of the experiment: Antifungal activity against Phytophthora capsici by paper disk assay. The format is functional, organism-based.

Turning to `C=CC(=C)CC(=C)/C(C)=C/CC/C=C/C=C(\C)C[C@@H]1O[C@@H](C(O)C(O)C(O)/C(C)=C/C=C/CNC(=O)/C=C/C=C/C(O)CC(O)C(O)C[C@H]2O[C@@H]([C@H]3C[C@H](O)[C@H](O)[C@@](C)(CO)O3)[C@H](O)C(O)[C@@H]2O)[C@@H](O)[C@H](O)[C@H]1O` (stereo partly drawn) [ZOOXANTHELLAMIDE D], the pIC50 in experiment [1] is 5.18; with A-431, 5.35. In addition, the result in the experiment on Phytophthora capsici was inactive.
